Results from patent US20230337672A1, “METHOD OF C[…] RUST FUNGUS HAVING RESISTANCE TO QoI FUNGICIDE” (SUMITOMO CHEMICAL COMPANY, LIMITED, priority 2020, published 2023).

The molecules below were run on soybean rust fungus (Phakopsora pachyrhizi) having an amino acid substitution of F129L in a mitochondrial cytochrome b protein (assay: Leaf disc test: preventive spray, then inoculation with soybean rust fungus spores, lesion area investigated). Conditions: Comparative Test Example 1 (Table A).
Type: in vivo
Experimental: A true leaf of a soybean (cultivar: Kurosengoku) was cut into a diameter of 1 cm to prepare each leaf disc. To each well of a 24 well microplate was dispensed 1 mL of an agar medium (agar concentration 1.2%), and then one of said leaf disc was placed on each well. To a mixture of Sorpol (registered trademark) 1200KX (0.5 µL), DMSO (4.5 µL), and xylene (5 µL) was added a DMSO solution (20 µL) comprising a test compound (10000 ppm), and the resulting mixture was mixed. The resulting mixture was diluted with ion exchange water to prepare a spray solution comprising a prescribed concentration of the test compound. Said spray solution was sprayed into each leaf disc at a ratio of 10 µL per leaf disc. After 1 day, an aqueous suspension of spores of soybean rust fungus (Phakopsora pachyrhizi) having an amino acid substitution of F129L in a mitochondrial cytochrome b protein (1.0 × 10^5/mL) was inoculated by spraying on each leaf disc. After the inoculation, the microplate was placed into an artificial climate chamber (Lighting: 6 hours, Lights-out: 18 hours, Temperature: 23° C., Humidity: 60%). After 1 day, the leaf discs were air-dried until water droplets on the surfaces of the leaf discs disappeared, and the microplate was placed into the artificial climate chamber again for 12 days. Then, lesion area of soybean rust was investigated. As a result, when the prescribed concentration was 50 ppm, each lesion area of leaf disc treated with any one of the Present compound 2, 6, 8, 25, 29, or 35 as the test compound was 30% or less relative to the lesion area of non-treated leaf disc.
Here, the term of “non-treated” means that a spray solution comprising a test compound was not sprayed into a leaf disc.
Each test is carried out according to the Test Example 1 by using any one of the Present compound S as the test compound with a prescribed concentration of 12.5 ppm. As a result, control effects on soybean rust can be confirmed in the leaf discs treated with test compounds.
Each test is carried out according to the Test Example 1 by using any one of the Present compound S as the test compound with a prescribed concentration of 3.1 ppm. As a result, control effects on soybean rust can be confirmed in the leaf discs treated with test compounds.
Each test was carried out according to the Test Example 1 by using the Present compound 2, 6, 8, 29 or 35, or azoxystrobin, dimoxystrobin, or metominostrobin as the test compound with a prescribed concentration of 50 ppm.

| SMILES | Lesion area (%) at the concentration of 50 ppm |
| --- | --- |
| CO/C=C(/C(=O)OC)c1cccc2sc(-c3ccccc3)nc12 [Present compound 6] | 30% |
| CO/C=C(/C(=O)OC)c1cccc2oc(-c3ccccc3)nc12 [Present compound 2] | 10% |
| Cn1nc(Cl)n(-c2cccc3oc(COc4ccccc4)nc23)c1=O [Present compound 35] | 0% |
| Cn1nc(Cl)n(-c2cccc3oc(Cc4ccccc4)nc23)c1=O [Present compound 29] | 10% |
| CO/C=C(/C(=O)OC)c1ccccc1Oc1cc(Oc2ccccc2C#N)ncn1 [Azoxystrobin, azoxystrobin, reference compound] | 100% |
| CNC(=O)/C(=N/OC)c1ccccc1Oc1ccccc1 [Metominostrobin, metominostrobin, reference compound] | 100% |
| CNC(=O)/C(=N/OC)c1ccccc1COc1cc(C)ccc1C [Dimoxystrobin, dimoxystrobin, reference compound] | 100% |
| CO/C=C(/C(=O)OC)c1cccc2ccc(-c3ccccc3)cc12 [Present compound 8] | 0% |
